Data as given in the NIST ThermoML archive (doi:10.1016/j.fluid.2018.05.032).
Values joined by “and” are separate entries in the source; they are usually repeats but may differ in a detail not shown here. Equal entries are not always repeated. ± gives the expanded uncertainty stated by the source.

How the values were obtained:
[1] = for vapor or sublimation pressure: Closed cell (Static) method; for Normal melting temperature: DTA
[2] = Molar enthalpy of transition or fusion; details: Crystal; DSC
[3] = molar heat capacity at constant pressure; details: 101.33 kPa, DSC

CCNCCO [2-(ethylamino)ethanol]
Details	molar heat capacity at constant pressure [J/K/mol]	vapor or sublimation pressure
[1], 238.05 K, Crystal	–	5e-05 ± 9.4e-05 kPa and 4.9e-05 ± 9.4e-05 kPa and 4.8e-05 ± 9.4e-05 kPa
[1], 243.07 K, Crystal	–	0.000113 ± 9.6e-05 kPa and 0.000112 ± 9.6e-05 kPa
[1], 243.07 K, Metastable liquid	–	0.000222 ± 9.6e-05 kPa and 0.000223 ± 9.6e-05 kPa and 0.000221 ± 9.6e-05 kPa
[1], 248.11 K, Metastable liquid	–	0.000424 ± 9.9e-05 kPa and 0.000423 ± 9.9e-05 kPa
[1], 248.13 K, Crystal	–	0.000251 ± 9.8e-05 kPa and 0.000252 ± 9.8e-05 kPa
[1], 248.14 K, Crystal	–	0.000253 ± 9.8e-05 kPa
[1], 253.13 K, Crystal	–	0.000545 ± 0.0001 kPa and 0.000544 ± 0.0001 kPa and 0.000546 ± 0.0001 kPa
[1], 253.13 K, Metastable liquid	–	0.000783 ± 0.00011 kPa and 0.000784 ± 0.00011 kPa and 0.000781 ± 0.00011 kPa
[1], 258.13 K, Crystal	–	0.001146 ± 0.00011 kPa
[1], 258.13 K, Metastable liquid	–	0.001403 ± 0.00012 kPa and 0.001401 ± 0.00012 kPa
[1], 258.14 K, Crystal	–	0.001142 ± 0.00011 kPa and 0.001139 ± 0.00011 kPa
[1], 258.14 K, Metastable liquid	–	0.001403 ± 0.00012 kPa
[1], 263.13 K, Metastable liquid	–	0.002453 ± 0.00014 kPa
[1], 263.14 K, Crystal	–	0.002334 ± 0.00014 kPa and 0.002326 ± 0.00014 kPa and 0.00232 ± 0.00014 kPa
[1], 263.14 K, Metastable liquid	–	0.002454 ± 0.00014 kPa
[1], 268.14 K, Liquid	–	0.004201 ± 0.00019 kPa and 0.004205 ± 0.00019 kPa and 0.004206 ± 0.00019 kPa
[1], 273.14 K, Liquid	–	0.007045 ± 0.00029 kPa and 0.007039 ± 0.00029 kPa and 0.007052 ± 0.00029 kPa
[1], 278.14 K, Liquid	–	0.01158 ± 0.00046 kPa
[1], 283.14 K, Liquid	–	0.01862 ± 0.0006 kPa and 0.01863 ± 0.0006 kPa
[1], 288.14 K, Liquid	–	0.02935 ± 0.00077 kPa and 0.02936 ± 0.00077 kPa and 0.02934 ± 0.00077 kPa
[1], 293.13 K, Liquid	–	0.04545 ± 0.001 kPa and 0.04543 ± 0.001 kPa
[1], 298.14 K, Liquid	–	0.06913 ± 0.0014 kPa and 0.06915 ± 0.0014 kPa
[1], 303.13 K, Liquid	–	0.1034 ± 0.0019 kPa
[1], 303.14 K, Liquid	–	0.1035 ± 0.0019 kPa
[1], 308.14 K, Liquid	–	0.1525 ± 0.0022 kPa
[3], 265 K, Liquid	215.4 ± 8.3	–
[3], 270 K, Liquid	217.1 ± 8.4	–
[3], 275 K, Liquid	218.8 ± 8.5	–
[3], 280 K, Liquid	220.3 ± 8.5	–
[3], 285 K, Liquid	222 ± 8.6	–
[3], 290 K, Liquid	223.6 ± 8.7	–
[3], 295 K, Liquid	225.5 ± 8.7	–
[3], 300 K, Liquid	227.7 ± 8.8	–
[3], 305 K, Liquid	229.9 ± 8.9	–
[3], 310 K, Liquid	232.1 ± 9	–
[3], 315 K, Liquid	234.6 ± 9.1	–
[3], 320 K, Liquid	237 ± 9.2	–
[3], 325 K, Liquid	239.5 ± 9.3	–
[3], 330 K, Liquid	242 ± 9.4	–
[3], 335 K, Liquid	244.4 ± 9.5	–
[3], 340 K, Liquid	247 ± 9.6	–
[3], 345 K, Liquid	249.9 ± 9.7	–
[3], 350 K, Liquid	252.9 ± 9.8	–
[3], 355 K, Liquid	255.9 ± 9.9	–

Details	Normal melting temperature [°C]
[1], Crystal	-9.2 ± 0.7

Details	Molar enthalpy of transition or fusion [kcal/mol]
[2]	3.94 ± 0.167

CC(C)NCCO [2-isopropylaminoethanol]
Details	molar heat capacity at constant pressure [J/K/mol]	vapor or sublimation pressure
[1], 248.13 K, Metastable liquid	–	0.000252 ± 9.8e-05 kPa and 0.000251 ± 9.8e-05 kPa
[1], 253.14 K, Metastable liquid	–	0.000472 ± 0.0001 kPa
[1], 253.15 K, Crystal	–	0.000258 ± 9.9e-05 kPa and 0.000257 ± 9.9e-05 kPa and 0.000254 ± 9.9e-05 kPa
[1], 253.15 K, Metastable liquid	–	0.000471 ± 0.0001 kPa and 0.000472 ± 0.0001 kPa
[1], 258.14 K, Crystal	–	0.000482 ± 0.0001 kPa and 0.00048 ± 0.0001 kPa and 0.000479 ± 0.0001 kPa
[1], 258.15 K, Metastable liquid	–	0.000864 ± 0.00011 kPa
[1], 263.15 K, Crystal	–	0.000926 ± 0.00011 kPa and 0.000923 ± 0.00011 kPa and 0.000921 ± 0.00011 kPa
[1], 263.15 K, Metastable liquid	–	0.001546 ± 0.00012 kPa and 0.001544 ± 0.00012 kPa
[1], 268.14 K, Crystal	–	0.00171 ± 0.00013 kPa and 0.001709 ± 0.00013 kPa
[1], 268.14 K, Metastable liquid	–	0.002688 ± 0.00015 kPa
[1], 273.14 K, Crystal	–	0.00318 ± 0.00016 kPa and 0.003182 ± 0.00016 kPa and 0.003174 ± 0.00016 kPa
[1], 273.14 K, Metastable liquid	–	0.004591 ± 0.0002 kPa
[1], 273.15 K, Metastable liquid	–	0.004589 ± 0.0002 kPa and 0.00459 ± 0.0002 kPa
[1], 278.14 K, Crystal	–	0.005875 ± 0.00025 kPa and 0.005872 ± 0.00025 kPa and 0.00587 ± 0.00025 kPa
[1], 278.14 K, Metastable liquid	–	0.007669 ± 0.00032 kPa and 0.007676 ± 0.00032 kPa and 0.007665 ± 0.00032 kPa
[1], 283.14 K, Crystal	–	0.01065 ± 0.00043 kPa and 0.01066 ± 0.00043 kPa and 0.01068 ± 0.00043 kPa
[1], 283.14 K, Metastable liquid	–	0.01257 ± 0.0005 kPa
[1], 288.14 K, Crystal	–	0.01909 ± 0.00061 kPa and 0.01911 ± 0.00061 kPa
[1], 288.15 K, Crystal	–	0.0191 ± 0.00061 kPa
[1], 288.15 K, Metastable liquid	–	0.0202 ± 0.00063 kPa
[1], 293.14 K, Liquid	–	0.03179 ± 0.00081 kPa
[1], 298.11 K, Liquid	–	0.04899 ± 0.0011 kPa
[1], 298.12 K, Liquid	–	0.0492 ± 0.0011 kPa
[1], 298.14 K, Liquid	–	0.04914 ± 0.0011 kPa and 0.04915 ± 0.0011 kPa
[1], 298.17 K, Liquid	–	0.04928 ± 0.0011 kPa
[1], 303.04 K, Liquid	–	0.07439 ± 0.0015 kPa and 0.0744 ± 0.0015 kPa and 0.07435 ± 0.0015 kPa
[1], 303.14 K, Liquid	–	0.0747 ± 0.0015 kPa and 0.07469 ± 0.0015 kPa and 0.07473 ± 0.0015 kPa
[1], 308.01 K, Liquid	–	0.1111 ± 0.0022 kPa
[1], 308.03 K, Liquid	–	0.1112 ± 0.0022 kPa
[1], 308.04 K, Liquid	–	0.1112 ± 0.0022 kPa
[1], 308.14 K, Liquid	–	0.1119 ± 0.0021 kPa
[1], 308.15 K, Liquid	–	0.1119 ± 0.0021 kPa and 0.1118 ± 0.0021 kPa
[1], 313 K, Liquid	–	0.164 ± 0.0027 kPa
[1], 313.01 K, Liquid	–	0.1642 ± 0.0027 kPa
[1], 317.9 K, Liquid	–	0.2372 ± 0.0036 kPa and 0.2373 ± 0.0036 kPa
[1], 322.97 K, Liquid	–	0.3405 ± 0.0049 kPa
[1], 322.98 K, Liquid	–	0.3407 ± 0.0049 kPa
[1], 327.95 K, Liquid	–	0.4814 ± 0.0066 kPa and 0.4815 ± 0.0066 kPa
[1], 332.99 K, Liquid	–	0.6731 ± 0.0089 kPa and 0.6728 ± 0.0089 kPa
[1], 337.93 K, Liquid	–	0.9221 ± 0.012 kPa and 0.9223 ± 0.012 kPa
[1], 342.94 K, Liquid	–	1.257 ± 0.016 kPa
[3], 265 K, Metastable liquid	240.4 ± 9.3	–
[3], 270 K, Metastable liquid	243.1 ± 9.4	–
[3], 275 K, Metastable liquid	245.8 ± 9.5	–
[3], 280 K, Metastable liquid	248.5 ± 9.6	–
[3], 285 K, Metastable liquid	251 ± 9.7	–
[3], 290 K, Liquid	253.8 ± 9.8	–
[3], 295 K, Liquid	256.9 ± 10	–
[3], 300 K, Liquid	260.1 ± 10	–
[3], 305 K, Liquid	263.3 ± 10	–
[3], 310 K, Liquid	266.6 ± 10	–
[3], 315 K, Liquid	270.1 ± 10	–
[3], 320 K, Liquid	273.5 ± 11	–
[3], 325 K, Liquid	277.2 ± 11	–
[3], 330 K, Liquid	280.7 ± 11	–
[3], 335 K, Liquid	284.3 ± 11	–
[3], 340 K, Liquid	287.7 ± 11	–
[3], 345 K, Liquid	291.1 ± 11	–
[3], 350 K, Liquid	294.9 ± 11	–
[3], 355 K, Liquid	298.5 ± 12	–

Details	Normal melting temperature [°C]
[1], Crystal	16 ± 2

Details	Molar enthalpy of transition or fusion [kcal/mol]
[2]	4.54 ± 0.717

CCN(CC)CCO [(diethylamino)ethanol]
Liquid
Details	molar heat capacity at constant pressure [J/K/mol]	vapor or sublimation pressure
[1], 273.64 K	–	0.03488 ± 0.00086 kPa and 0.0349 ± 0.00086 kPa and 0.03489 ± 0.00086 kPa
[1], 278.14 K	–	0.05131 ± 0.0011 kPa and 0.05133 ± 0.0011 kPa
[1], 278.15 K	–	0.05134 ± 0.0011 kPa
[1], 283.14 K	–	0.07733 ± 0.0015 kPa
[1], 283.15 K	–	0.07737 ± 0.0015 kPa
[1], 288.15 K	–	0.1146 ± 0.0021 kPa
[1], 293.14 K	–	0.167 ± 0.0024 kPa and 0.1669 ± 0.0024 kPa
[1], 298.15 K	–	0.2393 ± 0.003 kPa
[1], 303.14 K	–	0.3378 ± 0.0039 kPa and 0.3379 ± 0.0039 kPa
[1], 303.15 K	–	0.338 ± 0.0039 kPa
[1], 308.15 K	–	0.4708 ± 0.005 kPa and 0.4709 ± 0.005 kPa
[3], 265 K	260.6 ± 10	–
[3], 270 K	263.9 ± 10	–
[3], 275 K	267.1 ± 10	–
[3], 280 K	270 ± 10	–
[3], 285 K	272.8 ± 11	–
[3], 290 K	275.6 ± 11	–
[3], 295 K	278.7 ± 11	–
[3], 300 K	281.8 ± 11	–
[3], 305 K	284.7 ± 11	–
[3], 310 K	287.6 ± 11	–
[3], 315 K	290.5 ± 11	–
[3], 320 K	293.2 ± 11	–
[3], 325 K	295.8 ± 12	–
[3], 330 K	298.2 ± 12	–
[3], 335 K	300.4 ± 12	–
[3], 340 K	302.7 ± 12	–
[3], 345 K	305.1 ± 12	–
[3], 350 K	307.7 ± 12	–
[3], 355 K	309.9 ± 12	–
